Ends that are not written are not given here.
Columns and labels:
TGF-β1 [1] = target: T1, TGF-β1 (Homo sapiens, UniProt P01137); assay type: cell-based; parameters: purchased Roche; host or cells: added to Mv-1-Lu (CCL-64) mink lung epithelial cells; details: Mv-1-Lu proliferation
Excerpt: The cell line Mv-1-Lu (CCL-64, […], Virginia, USA) derives from mink pulmonary epithelium, grows as a monolayer, and responds to the presence of TGF-β1 by decreasing its proliferation (FIG. 5). Thus, the peptide-mediated inhibition of this cytokine is able to restore cell growth and reflects the capacity of the different peptides to inhibit the biological activity of TGF-β1 in vitro. The peptides tested were obtained by peptide synthesis, in accordance to conventional procedures (Merrifield R B. J Am Chem Soc 1963; 85:2149-2154; Atherton E et al. J Chem Soc Perkin Trans 1981; 1:538-546).
The Mv-1-Lu cells are cultured to confluence in complete medium [RPMI-1640 supplemented with L-glutamine, sodium pyruvate, antibiotics and 10% fetal bovine serum (FBS)] at 37° C. and in 5% CO2 in 162 cm^2 bottles (Costar Corporation, CA, USA). Following trypsinization, the cells are cultured in 200 μl of complete medium in 96-well plates at an initial density of 5,000 cells/well at 37° C. and in 5% CO2 during 6 hours to ensure adhesion. Then, different concentrations of the peptides to be tested are added, starting from 200 μg/ml, and following 200 pg/ml of TGF-β1 (Roche) are added. After 12 hours of incubation 1 μCi of methyl-3H-thymidine (Amersham Life Science, Buckinghamshire, United Kingdom) is added per well in 25 μl of clean medium (RPMI-1640). The plate is incubated for 12 more hours under the same conditions. Finally, the cells are harvested (Filtermate 196 Harvester, Packard), transferring the tritiated thymidine, incorporated in the course of DNA synthesis, to plates (UniFilter-96 GF/C®, Perkin Elmer). Following the addition of scintillation fluid, the radioactivity was quantified using a scintillation counter (Top Count, Microplate Scintillation Counter, Packard). As positive and negative control, use was made of the incorporation of tritiated thymidine in the absence and presence of TGF-β1, respectively. The inhibition of TGF-β1 activity in this test was calculated based on the following formula: […]
The negative control represents the incorporation of tritiated thymidine in the presence of TGF-β1 but in the absence of peptide, whereas the positive control refers to the incorporation of tritiated thymidine in the absence of TGF-β1 and peptide. Thus, according to the capacity of the peptides to revert the cytokine repressor effect on Mv-1-Lu cell line proliferation, percentage of TGF-β1 biological activity inhibition by the peptides can be measured (Table 2).
Comparisons have been made of the activity of truncated peptides (derived from peptide sequence SEQ ID NO: 17) versus the complete sequence, in terms of the capacity to revert the suppressor effect of TGF-β1 upon proliferation of the Mv-1-Lu cell line. To this effect, and to determine the minimum sequence of peptide SEQ ID NO: 17 capable of inhibiting the biological activity of TGF-β1 in vitro, truncated versions of this peptide were synthesized, with truncation at the N-terminal end, C-terminal end or in both ends of the molecule. The peptides tested were obtained by peptide synthesis following conventional procedures (Merrifield R B. J Am Chem Soc 1963; 85:2149-2154; Atherton E et al. J Chem Soc Perkin Trans 1981; 1:538-546). Following the same methodology described in Example 2, the activity of truncated peptides versus the complete sequence of the peptide SEQ ID NO: 17 was quantified, in terms of a proliferation assay of the Mv-1-Lu cell line.

TGF-β1 [2] = target: T1, TGF-β1; test: Biopanning of phage-displayed 15-aa peptide library on biotinylated TGF-β1, number of colonies per sequence; assay type: binding; parameters: purchased Roche; host or cells: added to Mv-1-Lu (CCL-64) mink lung epithelial cells; details: clones carrying the sequence among 108 colonies after the last biopanning cycle; approximate indication of affinity for TGF-β1
Excerpt: These libraries comprise a plurality of filamentous bacteriophages (M13), each one containing a peptide genetically fused to a protein of the virus envelope—in this case bound to the N-terminal end of envelope protein pIII (FIG. 1). […] In the phage libraries, the sequence encoding the peptide originates from a sequence degenerated in each one of the 15 positions with the 20 natural amino acids, thus allowing the presentation of 1.1×10^12 possible sequences of 15 amino acids in different phages. The physical ratio, 1:1, between the peptide sequence and the DNA encoding it within the bacteriophage allows the selection (from a broad range of variants) of those sequences that specifically bind to TGF-β1. This process is carried out via an in vitro selection protocol known as “biopanning”.
This technique involves incubating a set of phages representative (to practical effects) of all the 15-aa variants, in a plate blocked with streptavidin (10 μg/ml in 0.1 M NaHCO3, during 2 h at room temperature) to which biotinylated TGF-β1 is added. […] TGF-β1 contacts the peptides carried by the phages at a concentration of […]. After about 12 hours incubation, unbound phages are eliminated by 5 washings with PBS/Tween (phosphate buffered saline/polyoxyalkylene derivatives of sorbitan fatty acid esters). […] The eluted phages are then amplified by infection in a bacterial strain (E. coli). The process is repeated three cycles so that an enrichment in the content of phages which specifically bind, and with high affinity, to TGF-β1 is achieved (FIG. 3). […] Thus, the phages selected in each cycle show more and more affinity for TGF-β1. At the end of the process, phages which have been selected for their affinity for TGF-β1, are sequenced by using primers, after isolation by tetracycline resistance of the genetically modified phages after infecting E. coli cells. […] The number of times which a sequence is repeated, corresponding to a 15 amino acids peptide carried by each clone, from the total of sequenced colonies is an indication of the degree of relative affinity of said 15 amino acids sequence for TGF-β1.
The selection of clones, obtained from the “biopanning”, was carried out by selection of the bacterial colonies infected with the phages in the presence of a bacterial antibiotic; the bacteria resistance is acquired by a tetracycline resistance gene encoded by the phage genome. Thus, only those colonies infected with bacteriophages are able to grow. This means that each colony contains the genome of only one phage coding for only one peptide presented in its surface.
A total number of 108 colonies of phage-infected bacteria were obtained from the last selection cycle of “biopanning”. The sequence of the regions coding for the peptides present in the pIII protein was carried out using primers identified with SEQ ID NO: 23. This table also reflects the number of colonies (clones) carrying said sequences.
The number of clones (colonies) of each sequence gives an approximate indication of the degree of affinity of the peptide for TGF-β1, that is, the more colonies the more binding affinity.

TGF-β1 [3] = target: T2, TGF-β1 (Mus musculus, UniProt P04202); test: Model of acute liver damage induced by CCl4, type I collagen mRNA by real time PCR; assay type: in vivo, mice; parameters: key to % Inhibition of type I collagen mRNA induction (in vivo TGF-β1 biological activity): Neg: negative; details: for % Inhibition of type I collagen mRNA induction (in vivo TGF-β1 biological activity): Balb/C mice, oral CCl4, 50 μg of peptide every 24 h, sacrifice after 72 hours; for inhibition of the biological activity of TGF-β1 in vivo (in words): acute liver damage, type I collagen mRNA
T2 construct: from tissue; host or cells: liver of Balb/C mice (CCl4 model); lung of C57BL/6 mice (bleomycin model)
Experimental: Acute liver damage generates a cascade of effects and physiological responses, including elevations in the concentrations of TGF-β1. This elevation is responsible for the expression of the type I collagen gene, among others. In this model of acute liver damage, female Balb/C mice weighing 25 to 30 g, were orally administered a dose of 2 μl of CCl4 (per gram of body weight) dissolved in an equivalent volume of corn oil (volumetric ratio of 1:1). The control group received an equivalent volume of corn oil only, and the treated groups received (following the single oral administration of CCl4 in corn oil) 50 μg of peptide in 500 μl of 1% physiological saline solution in DMSO (dimethyl sulfoxide) every 24 h. After 72 hours all animals were sacrificed, and the liver samples were processed. To evaluate mRNA expression, liver tissue was frozen in liquid nitrogen and stored at −80° C. until further use. Other liver tissue samples were stored in OCT® or Tissue-Tek® (Sakura Finetek B.V.) and processed in the same way as the samples used for mRNA studies. Other liver samples were fixed in 10% buffered formalin solution, embedded in paraffin and processed for their histological evaluation. The amount of mRNA encoding type I collagen was quantified in all groups using a quantitative polymerase chain reaction (PCR) technique. […] The capacity of the testing peptides to block the acute damage, as assessed by measuring the levels of induced type I collagen mRNA was quantified by real time PCR. […] The peptides tested were obtained by conventional solid peptide synthesis procedures (Merrifield R B. J Am Chem Soc 1963; 85:2149-2154; Atherton E et al. J Chem Soc Perkin Trans 1981; 1:538-546).

T2 sequence (P04202 279-390 limits assumed): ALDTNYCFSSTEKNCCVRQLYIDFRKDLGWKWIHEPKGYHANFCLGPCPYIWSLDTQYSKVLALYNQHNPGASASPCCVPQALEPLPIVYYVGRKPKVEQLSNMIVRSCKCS
T1 sequence (P01137 279-390 limits assumed, species assumed): as the sequence (P04202 279-390 limits assumed) above, with S75A counted along it

Row | Sequence | inhibition of the biological activity of TGF-β1 in vitro (in words) (TGF-β1 [1]) | No. colonies (TGF-β1 [2]) | % Inhibition of type I collagen mRNA induction (in vivo TGF-β1 biological activity) (TGF-β1 [3]) | inhibition of the biological activity of TGF-β1 in vivo (in words) (TGF-β1 [3])
1 | RFFTRFPWHYHASRL [SEQ ID NO: 3] | only inhibitory activity | 41 | 2.09% | much less active
2 | PPYHRFWRGHRHAVQ [SEQ ID NO: 6] | inhibitory capacity | 12 | 74.94 ± 25.3% | inhibitory capacity
3 | SGRRHLHRHHIFSLP [SEQ ID NO: 14] | inhibitory capacity | 2 | 49.84 ± 24% | inhibitory capacity
4 | WHKYFLRRPLSVRTR [SEQ ID NO: 11] | inhibitory capacity | 4 | 39.34 ± 21.9% | inhibitory capacity
5 | RLAHSHRHRSHVALT [SEQ ID NO: 4] | inhibitory capacity | 18 | 51.30 ± 15.3% | inhibitory capacity
6 | RKWFLQHRRMPVSVL [SEQ ID NO: 13] | inhibitory capacity | 6 | 32.70% | inhibitory capacity
7 | MPLSRYWWLFSHRPR [SEQ ID NO: 18] | only inhibitory activity | 1 | Neg | –
